Laboratory results published in patent US6492410B1, “Combinations of protein farnesyltransferase and HMG CoA reductase inhibitors and their use to treat cancer” (Warner-Lambert Company, priority 1998, dated 2002).

How the values were obtained:
[1] = system: human lung carcinoma with K-ras mutation and p53 deletion; conditions: nude mice; cited from earlier work
[2] = system: hepatocellular, pancreatic, and central nervous system tumors; conditions: in vitro and in animal models; cited from earlier work
[3] = system: H460 Lung; experiment: cells; conditions: Homo sapiens, NCI-H460, 72 h, read-out: IC50 (concentration at which growth (cell#) is reduced by 50%)
Protocol: (§1) A proliferation assay was performed to ascertain the toxicity of a combination of a famesyl protein transferase and lovastatin at various concentrations to a number of cancerous cell lines. The assay was also performed to ascertain the toxicity of the farnesyl protein transferase alone as a comparison against the combination.
(§2) Cell lines (Panc-1, Colon26, HT-29 Colon, H460 Lung, H-ras NIH 3T3 fibroblast, P388/ADR leukemia, and P388/S leukemia) were set up at various starting concentrations in 24- or 12-well dishes. Suspension cells were treated immediately; attached monolayer cells were allowed to attach for 24 hours prior to treatment. The cells were treated in one series of tests with lovastatin and solvent (DMSO); in another series of tests with a combination of lovastatin, solvent (DMSO) and the farnesyltransferase inhibitor, (S)-[1-{(4-benzyloxy-benzyl)-[(2-methyl-2-phenyl-propyl carbamoyl)-methyl]-carbamoyl}-2-(3H1-imidazol-4-yl)-ethyl]-carbamic acid benzyl ester (Compound A); and in a third series of cells were treated with only the farnesyltransferase inhibitor. After 72 hours of treatment, the cells (growing in 1 mL of medium) are trypsinized with warm (37 degrees celsius) trypsin-EDTA (0.5 mL for 1-2 minutes), agitated, rescued with 0.5 mL of warm (37) medium, then diluted in […] Isoton (isotonic saline) for a final volume of 10 mL, 0.5 mL are then counted on a Coulter cell counter.
(§3) The data for lovastatin treatment alone is relative to the DMSO-treated controls; the data for combination treatment is relative to the PFT inhibitor treatment alone samples.

[4] = system: P388/S leukemia; experiment: cells; conditions: Mus musculus, 72 h, read-out: IC50 (concentration at which growth (cell#) is reduced by 50%)
Protocol: as §1, §2, §3

[5] = system: P388/ADR leukemia; experiment: cells; conditions: Mus musculus, 72 h, read-out: IC50 (concentration at which growth (cell#) is reduced by 50%)
Protocol: as §1, §2, §3

[6] = system: Panc-1; experiment: cells; conditions: Homo sapiens, PANC-1, 72 h, read-out: IC50 (concentration at which growth (cell#) is reduced by 50%)
Protocol: as §1, §2, §3

[7] = system: HT-29 Colon; experiment: cells; conditions: Homo sapiens, HT-29, 72 h, read-out: IC50 (concentration at which growth (cell#) is reduced by 50%)
Protocol: as §1, §2, §3

[8] = system: Colon26; experiment: cells; conditions: Mus musculus, Colon 26, 72 h, read-out: IC50 (concentration at which growth (cell#) is reduced by 50%)
Protocol: as §1, §2, §3

[9] = system: H-ras NIH 3T3 fibroblast; experiment: cells; conditions: Mus musculus, NIH3T3, 72 h, read-out: IC50 (concentration at which growth (cell#) is reduced by 50%)
Protocol: as §1, §2, §3

[10] = system: human colon carcinoma xenografts; conditions: 100 mg/kg; human colon carcinoma xenograft in nude mice; cited from earlier work
[11] = system: HT1080 human fibrosarcoma; conditions: 100 mg/kg; HT1080 xenograft in nude mice; cited from earlier work
[12] = system: EJ-1 human bladder carcinoma; conditions: 100 mg/kg; EJ-1 xenograft in nude mice; cited from earlier work
[13] = system: mammary and salivary carcinomas; conditions: daily administration; ras transgenic mice; cited from earlier work

In the case of `CSCC[C@H](NC(=O)c1ccc(NC[C@@H](N)CS)cc1-c1ccccc1)C(=O)O` [FT1276], the tumor growth [1] is given as “selectively block tumor growth”.
In the case of `CC[C@H](C)C(=O)O[C@H]1C[C@@H](C)C=C2C=C[C@H](C)[C@H](CC[C@@H]3C[C@@H](O)CC(=O)O3)[C@H]21` [Lovastatin, lovastatin], the tumor growth [2] is given as “selectively inhibited tumor growth”, the IC50 [3] is given as 5.5 µM and the IC50 [4] is given as 4 µM. For the same compound, the IC50 [5] was 10.7 µM, the IC50 [6] was 18.8 µM and the IC50 [7] was 11.4 µM. It also gave an IC50 [8] of 1.2 µM and an IC50 [9] of 17.4 µM.
For `COC(=O)[C@H](CCSC)NC(=O)[C@H](/C=C\[C@@H](/C=C/[C@@H](N)CS)C(C)C)Cc1ccccc1` [B 1086], the tumor growth [10] is given as “inhibit tumor growth”, the tumor growth [11] is given as “inhibit tumor growth” and the tumor growth [12] is given as “inhibit tumor growth”.
For `CC[C@H](C)[C@@H](CO[C@@H](Cc1ccccc1)C(=O)N[C@@H](CCS(C)(=O)=O)C(=O)OC(C)C)NC[C@@H](N)CS` [L-744,832], the tumor regression [13] is given as “caused tumor regression”.
